{
  "source": "the NIST ThermoML archive (doi:10.1016/j.tca.2010.09.010)",
  "details": "Crystal, TG",
  "note": "Numbers after ± are expanded uncertainties.",
  "data": [
    {"compound": "[Cd+2].[I-].[I-]", "note": "[cadmium iodide (CdI2)]", "values": [
      {"measurement": "vapor or sublimation pressure", "setting": "740 K", "value": "0.2888 ± 0.073", "unit": "kPa"},
      {"measurement": "vapor or sublimation pressure", "setting": "745 K", "value": "0.3252 ± 0.082", "unit": "kPa"},
      {"measurement": "vapor or sublimation pressure", "setting": "750 K", "value": "0.3668 ± 0.092", "unit": "kPa"},
      {"measurement": "vapor or sublimation pressure", "setting": "755 K", "value": "0.4124 ± 0.1", "unit": "kPa"},
      {"measurement": "vapor or sublimation pressure", "setting": "760 K", "value": "0.4631 ± 0.12", "unit": "kPa"},
      {"measurement": "vapor or sublimation pressure", "setting": "765 K", "value": "0.5198 ± 0.13", "unit": "kPa"},
      {"measurement": "vapor or sublimation pressure", "setting": "770 K", "value": "0.5826 ± 0.15", "unit": "kPa"}
    ]}
  ]
}
